The numbers were not newly measured in patent US20190117852A1, “IMPROVEMENTS IN STENTS FOR THE RELEASE OF ACTIVE PRINCIPLES” (CID S.p.A., priority 2016, published 2019), which cites them from elsewhere.

The conditions of the data set: duration of release; correlated to complete in vitro release at 30 hours.

Each structure is given as a SMILES string.

As for `CO[C@H]1C[C@@H]2CC[C@@H](C)[C@@](O)(O2)C(=O)C(=O)N2CCCC[C@H]2C(=O)O[C@H]([C@H](C)C[C@@H]2CC[C@@H](O)[C@H](OC)C2)CC(=O)[C@H](C)/C=C(\C)[C@@H](O)[C@@H](OC)C(=O)[C@H](C)C[C@H](C)/C=C/C=C/C=C/1C` [Sirolimus], the “in vivo release after coronary implantation” value is on record as “greater than 30 days”.
